A word on the IC50: it is the point on the concentration scale where inhibition reaches its midpoint. The term EC50 denotes the concentration needed to bring the measured effect to its halfway point.

One data set can be described thus: Mouse plasma stability. As to conditions: C57BL6 mouse plasma; 2 μM (YB-2), 5 μM (controls).
The next data set deals with MDA-MB-231 cell invasion. Put plainly: Cancer cell invasion assay, MDA-MB-231. In kind it is cell-based, human. As to conditions: 24 h. On the procedure:
(§1) A cancer cell invasion assay was developed based on literature protocols (Methods 2005, 37, 208; EMBO J 2002, 21, 6289; Cellular Signalling 2012, 24, 1276.). Membrane matrix gel (Cat #A1413201, ThermoFisher) was diluted in ice-cold, serum-free RPMI 1640 Medium (Cat #31800022, ThermoFisher) at a concentration of 0.5-0.6 mg/mL. Then it was added to the upper compartment (100 μL per cup) of millicell inserts (Cat #PI8P01250, ThermoFisher) placed in a 24-well plate (Part no. 229123, Celltreat). The plate was incubated at 37° C. for 2 h to allow the liquid gel to solidify. RPMI 1640 Medium supplemented with 10% FBS (300 μL) was added to the well of the plate (lower compartment) as attractant, then DMSO or compounds were added. Human cancer cells (1×10^5 cells in 200 μL of RPMI 1640 Medium) were added to the upper compartment of the insert, then DMSO or compounds were added. After the plate was incubated at 37° C. for 24 h, the cells were fixed on the lower side of the insert membrane with 4% formaldehyde and stained with 1% crystal violet (Part no. IS12146, Innovating Science). The invaded cells on the lower side of the filter were counted under an inverted microscope equipped with either a 4× or a 10× objective (FIG. 11). The cell numbers from 5 random views were averaged and plotted as percentage against the DMSO control (FIG. 12A).

In data set [1] the test system is Src protein activation in MDA-MB-231 cells. Put plainly: Cancer cell immunocytochemistry assay, Phospho-Src (Y416), MDA-MB-231. As to conditions: at about 40% of IC50 concentration from cell growth inhibition assay, 4 h. In kind it is cell-based, human. On the procedure:
Human cancer cells (15,000 cells/well) in 96 well half area microplate (Cat #3882, Corning) were incubated overnight at 37° C., then compounds or DMSO control were added to the cell culture and incubated at 37° C. for 1-6 h. The cells were sequentially fixed with 4% formalin, permeabilized with 0.5% Triton X-100, blocked with 5% BSA in PBS, incubated with Human Phospho-Src (Y416) Antibody (Cat #MAB2685, R&D Systems) at rt for 2 h, incubated with the secondary antibody Goat Ant-Rabbit IgG H&L (Alexa Fluor 488) (Cat #ab150077, abeam) for 45 min, and incubated with DAPI (Cat #D9542, Sigma-Aldrich) for 5 min. Finally, the cells were washed and covered with PBS. The cell images were visualized on an inverted fluorescence microscope (Leica DMIL Fluorescent Inverted Microscope with Digital Camera, Leica Microsystems). Pictures were taken [FIGS. 14A-C. Green: Human Phospho-Src (Y416), the activated form of the Src protein; Blue: DAPI (stain nucleus of cell)]. The fluorescence intensity values from 5 random cells were averaged, subtracted by the background value (area between cells) and the blank value [the blank control without the Human Phospho-Src (Y416) Antibody], then plotted as percentage against the DMSO control to indicate the effects of compound treatment on the cellular Src kinase phosphorylation levels in the cancer cells (FIGS. 15A-D).

The next data set relates to NCI-H460 cell invasion. The experiment in a line: Cancer cell invasion assay, NCI-H460. Format: cell-based, human. As to conditions: 24 h. On the procedure: as §1
Another data set has as its system OVCAR-8. The experiment in a line: Human cancer cell growth inhibition assay (ATP assay), OVCAR-8. In kind it is cell-based. As to conditions: Homo sapiens, OVCAR-8, 96 h.
In the next data set the test system is MDA-MB-231. Put plainly: Human cancer cell growth inhibition assay (ATP assay), MDA-MB-231. In kind it is cell-based. As to conditions: Homo sapiens, MDA-MB-231, 96 h.
The target in another data set is T1, human TRPA1 (Homo sapiens, UniProt O75762).
T1 construct: expressed in transfected cells; host or cells: overexpressing cells
T1 sequence (O75762 whole entry): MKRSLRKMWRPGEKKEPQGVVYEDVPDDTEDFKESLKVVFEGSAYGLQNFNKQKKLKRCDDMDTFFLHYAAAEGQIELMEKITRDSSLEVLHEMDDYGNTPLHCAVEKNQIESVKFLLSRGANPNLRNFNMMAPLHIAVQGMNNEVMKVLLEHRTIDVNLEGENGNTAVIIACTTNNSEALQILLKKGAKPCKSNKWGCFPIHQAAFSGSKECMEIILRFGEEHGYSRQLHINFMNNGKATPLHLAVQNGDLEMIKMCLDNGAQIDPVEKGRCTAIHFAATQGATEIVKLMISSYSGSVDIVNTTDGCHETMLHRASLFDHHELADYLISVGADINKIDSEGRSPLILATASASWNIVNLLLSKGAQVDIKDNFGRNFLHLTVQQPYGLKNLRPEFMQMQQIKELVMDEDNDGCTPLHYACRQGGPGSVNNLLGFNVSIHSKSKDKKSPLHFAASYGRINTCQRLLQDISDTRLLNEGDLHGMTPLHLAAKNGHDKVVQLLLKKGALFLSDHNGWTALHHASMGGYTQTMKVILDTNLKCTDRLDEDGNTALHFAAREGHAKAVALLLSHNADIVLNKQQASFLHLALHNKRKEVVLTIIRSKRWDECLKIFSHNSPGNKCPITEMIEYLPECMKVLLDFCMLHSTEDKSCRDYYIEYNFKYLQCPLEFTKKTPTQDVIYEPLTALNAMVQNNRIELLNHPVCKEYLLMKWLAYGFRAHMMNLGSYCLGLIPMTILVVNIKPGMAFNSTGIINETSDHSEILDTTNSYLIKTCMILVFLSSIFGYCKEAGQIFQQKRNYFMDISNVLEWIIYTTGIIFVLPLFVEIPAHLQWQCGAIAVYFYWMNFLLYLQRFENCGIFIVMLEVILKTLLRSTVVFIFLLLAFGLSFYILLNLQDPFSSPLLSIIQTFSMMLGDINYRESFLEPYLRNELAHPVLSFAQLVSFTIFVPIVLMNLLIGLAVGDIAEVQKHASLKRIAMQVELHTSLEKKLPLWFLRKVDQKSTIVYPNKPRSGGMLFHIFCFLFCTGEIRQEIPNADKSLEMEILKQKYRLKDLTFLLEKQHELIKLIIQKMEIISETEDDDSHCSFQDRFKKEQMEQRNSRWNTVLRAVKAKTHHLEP
Put plainly: In vitro Ca2+ flux counter-screen in human TRPA1 overexpressing cells. Format: cell-based. On the technique in general: Calcium assays in cells follow changes in intracellular calcium, usually with a dye or a luminescent sensor.

A further data set has as its system NCI-H460. Put plainly: Human cancer cell growth inhibition assay (ATP assay), NCI-H460. In kind it is cell-based. As to conditions: Homo sapiens, NCI-H460, 96 h.
The target of a further data set is T2, human TRPV3 (Homo sapiens, UniProt Q8NET8).
T2 construct: expressed in transfected cells; host or cells: overexpressing cells
T2 sequence (Q8NET8 1-790): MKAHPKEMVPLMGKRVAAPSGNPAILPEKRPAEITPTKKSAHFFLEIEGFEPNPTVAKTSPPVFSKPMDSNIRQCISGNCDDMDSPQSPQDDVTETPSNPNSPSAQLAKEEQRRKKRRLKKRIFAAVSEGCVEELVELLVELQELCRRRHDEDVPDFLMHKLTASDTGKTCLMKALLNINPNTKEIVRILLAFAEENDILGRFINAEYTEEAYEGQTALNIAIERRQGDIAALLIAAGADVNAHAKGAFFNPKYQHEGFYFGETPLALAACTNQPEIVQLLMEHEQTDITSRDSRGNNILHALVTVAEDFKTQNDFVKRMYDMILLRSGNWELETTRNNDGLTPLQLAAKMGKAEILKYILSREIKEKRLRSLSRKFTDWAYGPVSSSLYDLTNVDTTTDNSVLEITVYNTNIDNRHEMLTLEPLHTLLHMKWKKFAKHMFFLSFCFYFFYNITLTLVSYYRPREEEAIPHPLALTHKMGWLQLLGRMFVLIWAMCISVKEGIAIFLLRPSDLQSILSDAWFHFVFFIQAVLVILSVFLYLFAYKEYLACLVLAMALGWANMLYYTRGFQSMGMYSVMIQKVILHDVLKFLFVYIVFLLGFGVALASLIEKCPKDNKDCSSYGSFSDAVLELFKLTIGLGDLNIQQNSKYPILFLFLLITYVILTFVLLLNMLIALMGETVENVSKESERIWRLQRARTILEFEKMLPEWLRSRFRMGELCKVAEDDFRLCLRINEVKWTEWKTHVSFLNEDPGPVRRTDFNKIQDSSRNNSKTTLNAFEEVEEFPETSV
The experiment in a line: In vitro Ca2+ flux counter-screen in human TRPV3 overexpressing cells. In kind it is cell-based.

In a further data set the target is T3, human TRPV1 (Homo sapiens, UniProt Q8NER1).
T3 construct: DYK (FLAG) tag from vector pcDNA3.1+/C-(K)DYK (C); host or cells: FreeStyle 293-F cells (HEK 293), transient transfection
T3 sequence (Q8NER1 whole entry): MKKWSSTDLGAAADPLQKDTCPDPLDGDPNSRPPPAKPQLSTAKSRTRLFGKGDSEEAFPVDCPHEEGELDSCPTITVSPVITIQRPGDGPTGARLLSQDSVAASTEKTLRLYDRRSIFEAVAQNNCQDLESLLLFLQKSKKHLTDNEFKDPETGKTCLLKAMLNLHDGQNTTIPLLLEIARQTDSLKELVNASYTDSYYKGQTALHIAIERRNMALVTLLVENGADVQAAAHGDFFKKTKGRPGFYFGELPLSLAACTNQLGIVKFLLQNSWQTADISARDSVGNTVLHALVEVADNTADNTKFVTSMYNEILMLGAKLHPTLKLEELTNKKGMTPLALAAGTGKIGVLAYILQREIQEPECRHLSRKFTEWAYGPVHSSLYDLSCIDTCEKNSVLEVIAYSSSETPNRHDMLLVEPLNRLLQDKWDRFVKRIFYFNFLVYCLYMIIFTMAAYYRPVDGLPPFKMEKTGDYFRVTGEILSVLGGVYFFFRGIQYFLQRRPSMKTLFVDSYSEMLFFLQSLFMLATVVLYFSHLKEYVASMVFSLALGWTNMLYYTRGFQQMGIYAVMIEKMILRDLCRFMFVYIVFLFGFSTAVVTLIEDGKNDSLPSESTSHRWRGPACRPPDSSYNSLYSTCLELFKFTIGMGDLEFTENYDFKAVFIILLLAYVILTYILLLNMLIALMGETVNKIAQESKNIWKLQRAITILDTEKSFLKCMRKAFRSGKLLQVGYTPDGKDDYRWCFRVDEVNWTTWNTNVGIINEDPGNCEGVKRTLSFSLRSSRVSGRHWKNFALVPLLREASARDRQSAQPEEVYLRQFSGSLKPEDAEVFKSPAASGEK
The experiment in a line: In vitro Ca2+ flux assay in human TRPV1 transfected HEK 293 cells. Format: cell-based. As to conditions: Means±SEM from three independent experiments.

The mark [2] stands for this setting: 4 days, Means±SEM from three independent experiments, read-out: OVCAR-8, IC50.
Where [3] appears, read: 4 days, Means±SEM from three independent experiments, read-out: MDA-MB-231, IC50.
Setting [4] is: counter-screen, read-out: TRPA1 EC50.
The mark [5] stands for this setting: 4 days, Means±SEM from three independent experiments, read-out: NCl-H460, IC50.
Setting [6] is: counter-screen, read-out: TRPV3 EC50.

Several values for one entry are separate records, joined by “and”; a condition that tells them apart may be missing. Identical values can stand only once. Like-named read-outs stand apart in the source and are kept apart here.

`CC[C@H](C)C(=O)O[C@H]1C[C@@H](C)C=C2C=C[C@H](C)[C@H](CC[C@@H]3C[C@@H](O)CC(=O)O3)[C@H]21` [Lovastatin]: in the data set “Mouse plasma stability”, the “% Remaining at T120” value is given as 0.2% and the “T1/2” value was 12 min.

`CC(C)[N+](C)(CCOC(=O)C1c2ccccc2Oc2ccccc21)C(C)C` [Propantheline]: in the data set “Mouse plasma stability”, the “% Remaining at T120” value came out at 20% and the “T1/2” value is 55 min.

Regarding `COc1cc(CNC(=O)CCCC/C=C/C(C)C)ccc1NC(C)=O` [YB-9], the “inhibition of MDA-MB-231 cell invasion” value in the data set with MDA-MB-231 cell invasion is “dose-dependently inhibited”. Besides, the “cellular Src kinase phosphorylation levels” value in data set [1] is “significantly reduced the cellular Src kinase phosphorylation levels”. Also, the “inhibition of NCI-H460 cell invasion” value in the data set with NCI-H460 cell invasion is “dose-dependently inhibited the NCI-H460 cell invasion from 15 μM to 60 μM”. In addition, the IC50 in the data set on OVCAR-8 (setting [2]) came out at 34 ± 12 µM; with MDA-MB-231 (setting [3]), 75 ± 20 µM; with NCI-H460 (setting [5]) it was 65 ± 15 µM. Moreover, the EC50 at human TRPA1 (setting [4]) and at human TRPV3 (setting [6]) was > 10 µM in each case.

Regarding `COc1cc(CC(=O)N/C=C/c2ccc(Cl)cc2)ccc1O` [YB-10], the “inhibition of MDA-MB-231 cell invasion” value in the data set with MDA-MB-231 cell invasion is “dose-dependently inhibited”. For the same compound, the IC50 in the data set on OVCAR-8 (setting [2]) turned out to be 34 µM; with MDA-MB-231 (setting [3]), 115 ± 28 µM; in the data set with NCI-H460 (setting [5]) it was 73 ± 18 µM. Moreover, the EC50 at human TRPA1 (setting [4]) is > 10 µM; on human TRPV1 (read-out: TRPV1 EC50), < 0.1 µM and 0.012 to 0.048 µM; on human TRPV3 (setting [6]) it was > 10 µM.

As for `COc1cc(CC(=O)N/C=C/c2cccc(C(F)(F)F)c2)ccc1O` [YB-15], the results for the half-maximal inhibitory concentration (IC50) in the data set on OVCAR-8 (setting [2]), in the data set on MDA-MB-231 (setting [3]) and in the data set with NCI-H460 (setting [5]) were 101 ± 17 µM, 250 ± 38 µM and > 300 µM, respectively. The EC50 at human TRPA1 (setting [4]) was > 10 µM; on human TRPV1 (read-out: TRPV1 EC50), < 0.1 µM and 0.012 to 0.048 µM; on human TRPV3 (setting [6]) it was > 10 µM.

Turning to `COc1cc(CC(=O)N/C=C/c2ccc(C(F)(F)F)cc2)ccc1N` [YB-17], the IC50 with OVCAR-8 (read-out: OVCAR-8, IC50, μM) came out at 161 ± 26 µM; in the data set with MDA-MB-231 (read-out: MDA-MB-231, IC50, μM), 140 ± 22 µM; in the data set with NCI-H460 (read-out: NCl-H460, IC50, μM) it was 139 ± 19 µM. Also, the EC50 at human TRPA1 (setting [4]) was > 10 µM; at human TRPV1 (read-out: TRPV1 EC50) it was 0.34 to 1.1 µM; on human TRPV3 (setting [6]) it was > 10 µM.

Regarding `COc1cc(CC(=O)N/C=C/c2ccc(Cl)cc2)ccc1N` [YB-18], the IC50 was 200 ± 21 µM with OVCAR-8 (setting [2]), 69 ± 16 µM in the data set on MDA-MB-231 (setting [3]) and 133 ± 18 µM in the data set on NCI-H460 (setting [5]). The half-maximal effective concentration (EC50) at human TRPA1 (setting [4]) is > 10 µM; on human TRPV1 (read-out: TRPV1 EC50), 0.34 to 1.1 µM; on human TRPV3 (setting [6]) it was > 10 µM.

On to `COc1cc(CC(=O)N/C=C/c2cccc(C(F)(F)F)c2)ccc1N` [YB-21], for which the “inhibition of MDA-MB-231 cell invasion” value with MDA-MB-231 cell invasion is given as “dose-dependently inhibited”. In addition, the results for the IC50 in the data set with OVCAR-8 (setting [2]), in the data set on MDA-MB-231 (setting [3]) and in the data set on NCI-H460 (setting [5]) were 65 ± 14 µM, 101 ± 20 µM and 103 ± 13 µM, respectively. For the same compound, the EC50 on human TRPA1 (setting [4]) is > 10 µM; at human TRPV1 (read-out: TRPV1 EC50), 0.34 to 1.1 µM; at human TRPV3 (setting [6]) it was > 10 µM.

Regarding `COc1cc(CC(=O)N/C=C/c2cc(C(F)(F)F)cc(C(F)(F)F)c2)ccc1O` [YB-22], the “inhibition of MDA-MB-231 cell invasion” value with MDA-MB-231 cell invasion was “dose-dependently inhibited”. Further, the “cellular Src kinase phosphorylation levels” value in data set [1] is reported as “significantly reduced the cellular Src kinase phosphorylation levels”. The IC50 in the data set with OVCAR-8 (setting [2]) stood at 58 µM; with MDA-MB-231 (setting [3]) it was 74 µM; in the data set on NCI-H460 (setting [5]), 84 ± 12 µM. Further, the EC50 on human TRPA1 (setting [4]) and at human TRPV3 (setting [6]) was > 10 µM each time.

Consider `COc1cc(CC(=O)N/C=C/c2ccc(C#N)cc2)ccc1O` [YB-23], for which, in the data set on MDA-MB-231 cell invasion, the “inhibition of MDA-MB-231 cell invasion” value is given as “dose-dependently inhibited”. The “cellular Src kinase phosphorylation levels” value in data set [1] is recorded as “significantly reduced the cellular Src kinase phosphorylation levels”. The results for the IC50 in the data set with OVCAR-8 (setting [2]), in the data set on MDA-MB-231 (setting [3]) and in the data set with NCI-H460 (setting [5]) were 73 µM, 90 ± 12 µM and 88 µM, respectively. The EC50 at human TRPA1 (setting [4]) and at human TRPV3 (setting [6]) was > 10 µM each time.

Consider `COc1cc(CC(=O)N/C=C/c2ccc(C(F)(F)F)cc2)ccc1OC(=O)N1CCCCC1CN(C)C(=O)OC(C)(C)C` (stereo not shown) [YB-31], for which the EC50 on human TRPA1, at human TRPV1 (TRPV1 EC50 (μM)) and at human TRPV3 was > 10 µM each time.

`CNCC1CCCCN1C(=O)Oc1ccc(CC(=O)N/C=C/c2ccc(C(F)(F)F)cc2)cc1OC` (stereo not shown) [YB-35]: the EC50 on human TRPA1 was > 10 µM; on human TRPV1 (TRPV1 EC50 (μM)), 0.71 ± 0.14 µM; at human TRPV3, > 10 µM.

Values taken from patent publication US20240116856A1 (Young BioPharma, LLC, priority 2020, published 2024).
